According to patent US12606543B2, “Indole derivatives as serotonergic agents useful for the treatment of disorders related thereto” (priority 2023, dated 2026):
Read-outs that look alike come from different tables or passages of the source.

How the values were obtained:
[1] = Pharmacokinetic studies in rat (i.v.); type: in vivo; settings: male, Sprague-Dawley, plasma, iv, 1.19 mg/kg, rat plasma; for half-life / AUC(0-t): i.v. 1.19 mg/kg; for concentration at 0.25 h / concentration at 1 h / concentration at 4 h: i.v., dose 1.19 mg/kg
Experimental: Animals: Male Sprague-Dawley rats (˜225-350 g) from Charles River Labs were acclimatized for a minimum of 5 days prior to start of study procedures. Body weights were recorded on the day of dosing.
Any abnormalities were documented including presence/absence of wet dog shakes/back muscle contractions (WDS/BMC).
Dosing: Formulations were administered intravenously (i.v.) via the tail vein using a 25 G needle connected to a 1 cc syringe.
The exemplary compounds of Formula (I) were freshly prepared at the appropriate concentrations in 5% Tween-80 in saline.
Blood collection time (h): 0, […], 1 and 4
Volume/time-point: ˜0.25 mL (saphenous vein)
Instrumentation: AB Sciex QTRAP 4000 or 6500 MS/MS system equipped with an LC system with a binary pump, a solvent degasser, a thermostated column compartment, and a multiplate autosampler.
Analysis software: Phoenix® WinNonlin® 8.3 (Pharsight, Certara, Mountainview, CA).
Analysis methods: non-compartmental analysis, linear up/log down trapezoidal rule.
PK parameters: t1/2 and AUC0-tlast was estimated.
The Compounds of Formula (I) were freshly prepared at the appropriate concentrations in 5% Tween-80 in saline.
Instrumentation: AB Sciex QTRAP 4000 or 6500 MS/MS system equipped with an LC system with a binary pump, a solvent degasser, a thermostated column compartment and a multiplate autosampler.
PK parameters: t1/2 and AUC0-tlast will be estimated.

[2] = Liver microsomes stability, human; type: in vitro ADME; settings: for Remaining Percentage (%) 0 min / Remaining Percentage (%) 30 min / Remaining Percentage (%) 60 min: human liver microsomes
Experimental: (§1) The objective of this study was to estimate in vitro metabolic stability of exemplary compounds of Formula (I) or a pharmaceutically acceptable salt, solvate, and/or prodrug thereof in pooled human, male rat, and male mouse liver microsomes. The concentrations of compounds in reaction systems were evaluated by LC-MS/MS for estimating the stability in pooled human, male rat, and male mouse liver microsomes. The in vitro intrinsic clearances of test compounds were determined as well.
A master solution in the “Incubation Plate” containing phosphate buffer, ultra-pure H2O, MgCl2 solution and liver microsomes was made according to Table 33. The mixture was pre-warmed at 37° C. water bath for 5 minutes.
40 μL of 10 mM nicotinamide adenine dinucleotide phosphate (NADPH) solution was added to each well. The final concentration of NADPH was 1 mM. The negative control samples were prepared by replacing NADPH with 40 μL of ultra-pure H2O. Samples were prepared in duplicate. Negative controls were prepared in singlet.
The reaction was started with the addition of 4 μL of 200 μM exemplary test compounds of the disclosure or control compounds to each master solution to get the final concentration of 2 μM. This study was performed in duplicate.
Aliquots of 50 μL were taken from the reaction solution at 0, 15, 30, 45, and 60 minutes. The reaction solutions were stopped by the addition of 4 volumes of cold methanol with IS (100 nM alprazolam, 200 nM imipramine, 200 nM labetalol, and 2 μM ketoprofen). Samples were centrifuged at 3,220 g for 40 minutes. Aliquot of 90 μL of the supernatant was mixed with 90 μL of ultra-pure H2O and then was used for LC-MS/MS analysis.
LC/MS analysis was performed for all samples from this study using a Shimadzu liquid chromatograph separation system equipped with degasser DGU-20A5R; solvent delivery unit LC-30AD; system controller SIL-30AC; column oven CTO-30A; CTC Analytics HTC PAL System. Mass spectrometric analysis was performed using a Triple Quad™ 5500 instrument.
All calculations were carried out using Microsoft Excel. Peak area ratios of test compound to internal standard (listed in the below table) were determined from extracted ion chromatograms.
All calculations were carried out using Microsoft Excel. Peak areas were determined from extracted ion chromatograms. The slope value, k, was determined by linear regression of the natural logarithm of the remaining percentage of the parent drug vs. incubation time curve.
The in vitro half-life (in vitro t1/2) was determined from the slope value:
Conversion of the in vitro t1/2 (min) into the in vitro intrinsic clearance (in vitro CLint, in μL/min/mg proteins) was done using the following equation (mean of duplicate determinations): […]
as §1, with “solvate” for “solvate,”, “rat” for “rat,”
A master solution in the “Incubation Plate” containing phosphate buffer, ultra-pure H2O, MgCl2 solution and liver microsomes was made according to Table 67. The mixture was pre-warmed at 37° C. water bath for 5 minutes.
40 μL of 10 mM NADPH solution was added to each well. The final concentration of NADPH was 1 mM. The negative control samples were prepared by replacing NADPH with 40 μL of ultra-pure H2O. Samples were prepared in duplicate. Negative controls were prepared in singlet
Aliquots of 50 μL were taken from the reaction solution at 0, 15, 30, 45 and 60 minutes. The reaction solutions were stopped by the addition of 4 volumes of cold methanol with IS (100 nM alprazolam, 200 nM imipramine, 200 nM labetalol and 2 μM ketoprofen).

[3] = mean of 3 rats, read-out: Plasma concentration, Mean ± SD
[4] = rat R01, read-out: Plasma concentration, R01
[5] = rat R02, read-out: Plasma concentration, R02
[6] = rat R03, read-out: Plasma concentration, R03
[7] = Human liver microsomes, 2 μM, 0.5 mg/mL, NADPH

## CSc1ccc2[nH]cc(C[C@H]3CCCN3C)c2c1 [(R) I-1, (R)-3-((1-Methylpyrrolidin-2-yl)methyl)-5-(methylthio)-1H-indole]
[1]; mean of 3 rats, estimated from 2 points only, read-out: Apparent t1/2, Mean ± SD (converted)
  half-life: 47.1 ± 10.4 min
[1]; mean of 3 rats, read-out: AUC0-tlast, Mean ± SD
  AUC(0-t): 136 ± 22 ng·h/mL
[1]; rat R01, estimated from 2 points only, read-out: Apparent t1/2, R01 (converted)
  half-life: 58.5 min
[1]; rat R01, read-out: AUC0-tlast, R01
  AUC(0-t): 151 ng·h/mL
[1]; rat R02, estimated from 2 points only, read-out: Apparent t1/2, R02 (converted)
  half-life: 37.9 min
[1]; rat R02, read-out: AUC0-tlast, R02
  AUC(0-t): 111 ng·h/mL
[1]; rat R03, estimated from 2 points only, read-out: Apparent t1/2, R03 (converted)
  half-life: 44.9 min
[1]; rat R03, read-out: AUC0-tlast, R03
  AUC(0-t): 147 ng·h/mL
[1]; [3]
  concentration at 0.25 h: 109 ± 12.9 ng/mL
  concentration at 1 h: 46.1 ± 18.1 ng/mL
  concentration at 4 h: 3.96 ± 2.8 ng/mL
[1]; [4]
  concentration at 0.25 h: 120 ng/mL
  concentration at 1 h: 42.3 ng/mL
  concentration at 4 h: 7.04 ng/mL
[1]; [5]
  concentration at 0.25 h: 112 ng/mL
  concentration at 1 h: 30.3 ng/mL
  concentration at 4 h: 1.56 ng/mL
[1]; [6]
  concentration at 0.25 h: 94.7 ng/mL
  concentration at 1 h: 65.8 ng/mL
  concentration at 4 h: 3.27 ng/mL
[2]; Human liver microsomes
  Predicted hepatic CL: 16.09 mL/min/kg
[2]; [7]
  half-life at 2 μM: 24 min
  microsomal CLint at 2 μM: 57.7 µL/min/mg
[2]; Human liver microsomes, read-out: Scaled-up CLint
  CLint scaled at 2 μM: 72.3 mL/min/kg
[2]; With Cofactors
  Remaining Percentage (%) 0 min: 100.00%
  Remaining Percentage (%) 30 min: 50.51%
  Remaining Percentage (%) 60 min: 17.72%
[2]; Without Cofactors
  Remaining Percentage (%) 0 min: 100.00%
  Remaining Percentage (%) 30 min: 101.47%
  Remaining Percentage (%) 60 min: 97.56%
